The values that follow come from patent US8604016B2, “Heterocyclic inhibitors of glutaminase” (Calithera Biosciences Inc., priority 2011, dated 2013).

Data set [1] has as its target recombinant form of Glutaminase 1 (GAC) (Homo sapiens, UniProt O94925). Kind of data set: Recombinant Enzyme Assay - Time Dependence (60 minutes enzyme/compound preincubation). The format is biochemical. How it is done:
The enzyme/compound mix was sealed with sealing foil (USA Scientific) and allowed to incubate, with mild agitation, for 60 minutes at 20° C. Enzymatic reaction was started with the addition of 50 μL of substrate solution (50 mM Tris-HCl pH 8.0, 0.2 mM EDTA, 150 mM K2HPO4, 0.1 mg/ml BSA, 1 mM DTT, 20 mM L-glutamine, 2 mM NAD^+, and 10 ppm antifoam) and read in a Molecular Devices M5 plate reader at 20° C. The plate reader was configured to read absorbance (λ=340 nm) in kinetic mode for 15 minutes. Data was recorded as milli-absorbance units per minute and slopes were compared to a control compound and a DMSO-only control on the same plate. Compounds with slopes less than the DMSO control were considered inhibitors and plate variability was assessed using the control compound.

The nature of data set [2]: Solubility (18 hr vortex mixing at room temperature, filtration, HPLC). In kind it is physicochemical. The conditions noted are these: thermodynamic from solid. The protocol:
Ca. 1 mg portions of test article were combined with 120 μL solvent in wells of a 96×2 mL polypropylene plate. […] The contents of all wells were then filtered through a 0.45 μm GHP filter plate to yield clear filtrates. 5 μL of each filtrate was diluted into 100 μL DMF and vortex mixed to yield HPLC samples. Duplicate quantitation standards for each test article were prepared by diluting weighed portions of solid test article in measured volumes of DMF. 2 μL of each HPLC sample and quantitation standard were analyzed by HPLC using the method outlined in Table 5. Dissolved test article concentrations were calculated by peak area ratio against the appropriate quantitation standards.

Where [3] appears, read: read-out: GAC Delta N2 IC50 60 min.
The mark [4] stands for this setting: read-out: GAC Delta N2 IC50 60 min preinc.

SMILES strings stand for the structures. ≈ marks a conversion by molar mass, not a printed value. Read-outs that look alike come from different tables or passages of the source.

For `CC(C(=O)Nc1ccc(CCCCc2nnc(NC(=O)C(O)c3cccc(Cl)c3)s2)nn1)c1ccccc1` (stereo not shown) [Compound 468], the IC50 in data set [1] (setting [3]) was 16 nM. The same measure, in the same setting: the figure for `CC(C(=O)Nc1nnc(CCCCc2ccc(NC(=O)Cc3cccc(CNC(=O)CC(C)(O)C(F)(F)F)c3)nn2)s1)c1ccccc1` (stereo not shown) [Compound 607] is 7 nM. In the case of `CC(C(=O)Nc1nnc(CCCCc2ccc(NC(=O)Cc3cccc(CNC(=O)OC(C)(C)C)c3)nn2)s1)c1ccccc1` (stereo not shown) [Compound 489], the IC50 in data set [1] (setting [3]) amounted to 8 nM. Same read-out and setting: the figure for `CC(NC(=O)OC(C)(C)C)c1cc(CC(=O)Nc2nnc(CCCCc3ccc(NC(=O)Cc4ccccc4)nn3)s2)ccc1F` (stereo not shown) [Compound 653] is 5 nM.

As to `O=C(Cc1ccccc1)Nc1ccc(CCCCc2nnc(NC(=O)Cc3ccc(F)c(CN4CCNCC4)c3)s2)nn1` [Compound 494], the IC50 in data set [1] (setting [3]) came out at 19 nM. Same read-out and setting: the figure for `CC(C(=O)Nc1nnc(CCCCc2ccc(NC(=O)Cc3cccc(CNC(=O)CC(O)C(F)(F)F)c3)nn2)s1)c1ccccc1` (stereo not shown) [Compound 606] is 7 nM; for `O=C(Cc1ccccc1)Nc1ccc(CCCCc2nnc(NC(=O)Cc3cccc(OCc4ccccn4)c3)s2)nn1` [Compound 480] it is greater than 20000 nM. The same measure, in the same setting: under `CC(C(=O)Nc1nnc(CCCCc2ccc(NC(=O)Cc3cccc(CNC(=O)OCCF)c3)nn2)s1)c1ccccc1` (stereo not shown) [Compound 591] stands 4 nM.

Take `CN(Cc1cccc(CC(=O)Nc2nnc(CCCCc3nnc(NC(=O)Cc4ccccc4)s3)s2)c1)C(=O)OC(C)(C)C` [Compound 391]: the IC50 in data set [1] (setting [4]) amounted to 7 nM. Regarding `O=C(Cc1ccccc1)Nc1nnc(CCCCc2nnc(NC(=O)Cc3cccc(Cn4cccn4)c3)s2)s1` [Compound 392], in data set [1] (setting [4]), the IC50 is 14 nM.

For the molecule `CC(C)NC(=O)Nc1nnc(CCCCc2nnc(NC(=O)Cc3ccccc3)s2)s1` [Compound 438], in data set [1] (setting [3]), the IC50 stood at 740 nM.

Regarding `COC(C(=O)Nc1ccc(CCCCc2nnc(NC(=O)Cc3cccc(CNC(=O)OC(C)(C)C)c3)s2)nn1)c1ccccc1` (stereo not shown) [Compound 508], in data set [1] (setting [3]), the IC50 amounted to 11 nM. Same read-out and setting: under `COC(C(=O)Nc1nnc(CCCCc2ccc(NC(=O)Cc3cccc(CNC(=O)CC(C)(O)C(F)(F)F)c3)nn2)s1)c1ccccc1` (stereo not shown) [Compound 605] stands 13 nM.

Consider `O=C(Cc1ccccc1)Nc1ccc(CCCCc2nnc(NC(=O)C(OC(=O)CCN3CCOCC3)c3cccc(Cl)c3)s2)nn1` (stereo not shown) [Compound 389], for which, in data set [1] (setting [4]), the IC50 worked out at 84 nM. Regarding `Cc1cccc(CNC(=O)Nc2nnc(CCCCc3nnc(NC(=O)Cc4ccccc4)s3)s2)c1` [Compound 417], in data set [1] (setting [3]), the IC50 is 56 nM. In the case of `Cc1ccccc1CC(=O)Nc1nnc(CCCCc2ccc(NC(=O)Cc3ccccc3Cl)nn2)s1` [Compound 535], in data set [1] (setting [3]), the IC50 was determined as 7 nM.

With `CCCC(=O)OCN(C(=O)Cc1cccc(CC(=O)N2CCC(F)(F)CC2)c1)c1nnc(CCCCc2ccc(NC(=O)Cc3ccccc3)nn2)s1` [Compound 570], the IC50 in data set [1] (setting [3]) was determined as 430 nM. The same measure, in the same setting: under `COC(C(=O)Nc1nnc(CCCCc2ccc(NC(=O)Cc3cccc(CNC(=O)OC(C)(C)C)c3)nn2)s1)c1ccccc1` (stereo not shown) [Compound 509] stands 10 nM; under `CC(C)(C)OC(=O)NCc1cccc(CC(=O)Nc2nnc(CCCCc3ccc(NC(=O)C(O)c4cccc(Cl)c4)nn3)s2)c1` (stereo not shown) [Compound 422], 7 nM.

On to `CC(C(=O)Nc1ccc(CCCCc2nnc(NC(=O)C(C)c3ccccc3)s2)nn1)c1ccccc1` (stereo not shown) [Compound 613], for which the IC50 in data set [1] (setting [3]) worked out at 19 nM. A word on the solubility: it is the dissolved amount per volume that the medium holds. Take `CCCC(=O)OCN(C(=O)Cc1ccccc1)c1nnc(CCCCc2ccc(NC(=O)Cc3ccccc3)nn2)s1` [Compound 402]: the solubility at 18 h in data set [2] (50 mM citrate buffer pH 2.3, 20 °C, aqueous buffer, 50 mM Cit pH 2.3, room temperature) was less than 4 µg/mL; in data set [2] (50 mM citrate buffer pH 3.3, 20 °C, aqueous buffer, 50 mM Cit pH 3.3, room temperature) it was less than 4 µg/mL; in data set [2] (50 mM citrate buffer pH 4.4, 20 °C, aqueous buffer, 50 mM Cit pH 4.4, room temperature) it was less than 4 µg/mL; in data set [2] (50 mM citrate buffer pH 5.4, 20 °C, aqueous buffer, 50 mM Cit pH 5.4, room temperature), less than 4 µg/mL; in data set [2] (20 °C, aqueous buffer, PBS, room temperature), less than 4 µg/mL; in data set [2] (20 °C, aqueous with cosolvent or surfactant or cyclodextrin, 10% CrEL/50 mM cit, room temperature) it was 157 µg/mL (≈ 268 µM). The solubility at 18 h worked out at 153 µg/mL (≈ 261 µM) in data set [2] (20 °C, aqueous with cosolvent or surfactant or cyclodextrin, 10% PS80/50 mM cit, room temperature); 56 µg/mL (≈ 95.4 µM) in data set [2] (20 °C, aqueous with cosolvent or surfactant or cyclodextrin, 20% HPBCD/50 mM cit, room temperature); 19 µg/mL (≈ 32.4 µM) in data set [2] (20 °C, aqueous with cosolvent or surfactant or cyclodextrin, 20% SBECD/50 mM cit, room temperature); 13700 µg/mL (≈ 23300 µM) in data set [2] (20 °C, oil or lipid, Capryol 90, room temperature); 11200 µg/mL (≈ 19100 µM) in data set [2] (20 °C, oil or lipid, Capryol PGMC, room temperature); 31000 µg/mL (≈ 52900 µM) in data set [2] (20 °C, oil or lipid, Labrasol, room temperature). The solubility at 18 h in data set [2] (20 °C, oil or lipid, canola oil, room temperature) was 529 µg/mL (≈ 902 µM); in data set [2] (20 °C, organic solvent or mixture, EtOH, room temperature), 2960 µg/mL (≈ 5040 µM); in data set [2] (20 °C, organic solvent or mixture, PEG400, room temperature) it was 30200 µg/mL (≈ 51400 µM); in data set [2] (20 °C, organic solvent or mixture, PG, room temperature), 1360 µg/mL (≈ 2330 µM); in data set [2] (20 °C, pH 1, simulated gastric fluid, 0.1M HCl, room temperature), less than 4 µg/mL; in data set [2] (20 °C, pH 13, aqueous buffer, 0.1M NaOH, room temperature), less than 4 µg/mL. Further, the solubility at 18 h in data set [2] (20 °C, saline or isotonic, 0.9% NaCl, room temperature) was less than 4 µg/mL; in data set [2] (water, room temperature (ca. 20 C)), less than 4 µg/mL. Take `CC(NC(=O)OC(C)(C)C)c1cccc(CC(=O)Nc2ccc(CCCCc3nnc(NC(=O)C(C)c4ccccc4)s3)nn2)c1` (stereo not shown) [Compound 603]: the IC50 in data set [1] (setting [3]) is 9 nM. Same read-out and setting: under `CC(NC(=O)OC(C)(C)C)c1cc(CC(=O)Nc2ccc(CCCCc3nnc(NC(=O)Cc4ccccc4)s3)nn2)ccc1F` (stereo not shown) [Compound 654] stands 5 nM; under `O=C(Cc1ccccc1F)Nc1ccc(CCCCc2nnc(NC(=O)Cc3ccccc3Cl)s2)nn1` [Compound 566], 6 nM. Turning to `CNCc1cccc(CC(=O)Nc2nnc(CCCCc3nnc(NC(=O)Cc4ccccc4)s3)s2)c1` [Compound 393], the IC50 in data set [1] (setting [4]) is 100 nM. As to `CC(=O)N1CCN(Cc2cc(CC(=O)Nc3nnc(CCCCc4ccc(NC(=O)Cc5ccccc5)nn4)s3)ccc2F)CC1` [Compound 528], the IC50 in data set [1] (setting [3]) was determined as 7 nM. On the same count and under the same terms, the figure for `COC(C(=O)Nc1nnc(CCCCc2ccc(NC(=O)Cc3cccc(CNC(=O)CC(O)C(F)(F)F)c3)nn2)s1)c1ccccc1` (stereo not shown) [Compound 604] is 15 nM. On the same count and under the same terms, the figure for `CC(C)(C)OC(=O)NCc1cccc(CC(=O)Nc2nnc(CCCCc3ccc(NC(=O)C(O)(CO)c4ccccc4)nn3)s2)c1` (stereo not shown) [Compound 507] is 13 nM; for `CCCC(=O)OCN(C(=O)Cc1cccc(CNC(=O)OC(C)(C)C)c1)c1nnc(CCCCc2ccc(NC(=O)Cc3ccccc3)nn2)s1` [Compound 552] it is greater than 20000 nM. Still for that read-out and setting: under `CN(C)Cc1cccc(CC(=O)Nc2nnc(CCCCc3nnc(NC(=O)Cc4ccccc4)s3)s2)c1` [Compound 394] stands 88 nM; under `CC(C(=O)Nc1ccc(CCCCc2nnc(NC(=O)Cc3ccccc3)s2)nn1)c1ccc(F)c(CN(C)C(=O)OC(C)(C)C)c1` (stereo not shown) [Compound 599], 10 nM; under `NCc1cccc(CC(=O)Nc2nnc(CCCCc3nnc(NC(=O)Cc4ccccc4)s3)s2)c1` [Compound 437], 70 nM.

Take `O=C(Nc1ccc(CCCCc2nnc(NC(=O)C(O)c3cccc(Cl)c3)s2)nn1)C(O)c1cccc(Cl)c1` (stereo not shown) [Compound 446]: the IC50 in data set [1] (setting [3]) stood at 11 nM.

Take `O=C(CN1CCOCC1)NCc1ccc(CC(=O)Nc2nnc(CCCCc3ccc(NC(=O)Cc4ccccc4)nn3)s2)cc1` [Compound 442]: the IC50 in data set [1] (setting [3]) was determined as 7 nM. Still for that read-out and setting: under `CCCC(=O)OCN(C(=O)Cc1ccccc1)c1nnc(CCCCc2ccc(NC(=O)Cc3cccc(OC(F)(F)F)c3)nn2)s1` [Compound 629] stands greater than 20000 nM; under `CC(C(=O)Nc1nnc(CCCCc2ccc(NC(=O)Cc3ccccc3)nn2)s1)c1ccc(F)c(CNC(=O)OC(C)(C)C)c1` (stereo not shown) [Compound 568], 9 nM. Turning to `CCOC(=O)NCc1cc(C(C)C(=O)Nc2nnc(CCCCc3ccc(NC(=O)Cc4ccccc4)nn3)s2)ccc1F` (stereo not shown) [Compound 574], the IC50 in data set [1] (setting [3]) worked out at 6 nM.

For the molecule `O=C(Cc1ccccc1)Nc1nnc(CCCCc2nnc(NC(=O)Cc3cccc(OCCN4CCOCC4)c3)s2)s1` [Compound 390], the IC50 in data set [1] (setting [4]) amounted to 42 nM. For `CC(C)(C)OC(=O)N1CCN(Cc2cc(CC(=O)Nc3nnc(CCCCc4ccc(NC(=O)Cc5ccccc5)nn4)s3)ccc2F)CC1` [Compound 493], the IC50 in data set [1] (setting [3]) is 19 nM. The same measure, in the same setting: the figure for `CC(C)(C)OC(=O)NCc1cccc(CC(=O)Nc2nnc(CCCCc3ccc(NC(=O)C4(C)COC(C)(C)OC4)nn3)s2)c1` [Compound 529] is 32 nM; for `CCCC(=O)OCN(C(=O)C(CO)c1cccc(CNC(=O)OC(C)(C)C)c1)c1nnc(CCCCc2ccc(NC(=O)Cc3ccccc3)nn2)s1` (stereo not shown) [Compound 567] it is 430 nM. On the same count and under the same terms, under `CN(Cc1cc(CC(=O)Nc2nnc(CCCCc3ccc(NC(=O)Cc4ccccc4)nn3)s2)ccc1F)C(=O)OC(C)(C)C` [Compound 569] stands 6 nM.
